In patent US10596166B2, “Combination composition comprising huperzine” (priority 2015, dated 2020):

Assays:
ALS patients = conditions: several months; cited from earlier work
[1] = test system: primary cortical neurons injured by glutamate; assay: glutamate toxicity on primary cortical neurons (neuron survival, neurite network); format: cell-based, rat; conditions: glutamate 40 μM, 20 min
Experimental: Rat cortical neurons were cultured as described by Singer et al., 1999 [J. Neuroscience 19(7), 2455-2463] and Callizot et al. 2013 [J. Neurosc. Res. 91(5), 706-716].
Briefly, pregnant females (Wistar; JanvierLabs, St Berthevin, France) at 15 days of gestation were killed by cervical dislocation. Foetuses were collected and immediately placed in ice-cold L15 Leibovitz medium (Pan Biotech, Aidenbach, Germany, Batch: 4120413) with a 2% penicillin (10,000 U/ml) and streptomycin (10 mg/ml) solution (PS; Pan Biotech, Aidenbach, Germany) and 1% bovine serum albumin (BSA; Pan Biotech, Aidenbach, Germany). Cortex was treated for 20 min at 37° C. with a trypsin-EDTA (Pan Biotech, Aidenbach, Germany) solution at a final concentration of 0.05% trypsin and 0.02% EDTA. The dissociation was stopped by addition of Dulbecco's modified Eagle's medium (DMEM) with 4.5 g/liter of glucose (Pan Biotech, Aidenbach, Germany), containing DNAse I grade II (final concentration 0.5 mg/ml; Pan Biotech, Germany) and 10% fetal calf serum (FCS; Invitrogen, Cergy Pointoise, France). Cells were mechanically dissociated by three forced passages through the tip of a 10-ml pipette. Cells were then centrifuged at 515 g for 10 min at 4° C. The supernatant was discarded, and the pellet was resuspended in a defined culture medium consisting of Neurobasal medium (Invitrogen, Cergy Pointoise, France) with a 2% solution of B27 supplement (Invitrogen, Cergy Pointoise, France), 2 mmol/liter of L-glutamine (Pan Biotech, Aidenbach, Germany), 2% of PS solution, and 10 ng/ml of brain-derived neurotrophic factor (BDNF; Pan Biotech, Aidenbach, Germany). Viable cells were counted in a Neubauer cytometer, using the trypan blue exclusion test. The cells were seeded at a density of 30,000 per well in 96-well plates precoated with poly-L-lysine (Corning Biocoat, Tewksbury, USA) and were cultured at 37° C. in an air (95%)-CO2 (5%) incubator. The medium was changed every 2 days.
On day 13, the cultures were exposed for 20 minutes to glutamate 40 μM in the absence or presence of Huperzia serrata extracts. Then the cells were washed out and new fresh medium containing or not Huperzia serrata extracts was added for another 48 hours.
The cells were then fixed by a cold solution ethanol/acetic acid (95:5 v/v) for 5 minutes at −20° C. After permeabilization with 0.1% of saponin (Sigma), cells were incubated for 2 hours with mouse monoclonal antibody against microtubule-associated-protein 2 (MAP 2; Sigma) at dilution of 1/400 in PBS containing 1% foetal calf serum (Invitrogen) and 0.1% of saponin.
Neuron survival assessment: For each condition 6 wells were assessed, 20 pictures per well were taken using InCell Analyzer™ 1000 (GE Healthcare) with 20× magnification to assess cell bodies (MAP 2 staining). Analysis of picture was done using Developer software (GE Healthcare), the number of neurons per picture was recorded. A mean of neuron number of the 20 pictures was automatically calculated per well, then one data was provided per well (total of 6 raw data were provided per condition).
Neurite network length assessment: For each condition 6 wells were assessed, 20 pictures per well were taken using InCell Analyzer™ 1000 with 20× magnification (20 pictures at X20 representing ˜80% of the total well surface), to assess MAP-2 staining. Analysis of picture was done using Developer software, the total neurite length per picture was recorded. A mean neurite length of the 20 pictures was automatically calculated per well, then one data was provided per well (total of 6 raw data were provided per condition).
The protocol used in these assays is the same as described in example 1. After 13 days of neuron culture, the candidate compounds were solved in DMSO and diluted in culture medium. […]

mice = conditions: adult and aged mice; cited from earlier work

Question: Which prolongation of survival (ALS patients) does the source give for `Nc1nc2ccc(OC(F)(F)F)cc2s1` [Riluzole] here?
Answer: ~7%

Question: Which results are given for `O=C(O)c1cc(O)c(O)c(O)c1` [GA, gallic acid]?
Answer: neuron survival ([1]; 10 and 50 μM): ~80%; neurite network ([1]; GA 10 pM to 50 μM): no protection

Question: With `O=C(O)/C=C/c1ccc(O)cc1` [pCouA, para-coumaric acid] as the compound, how does the neuron survival ([1]; 100 nM and 1 μM) read?
Answer: ~80%

Question: And the neurite network ([1]; only 1 μM)?
Answer: protective effect

Question: What about the “survival and neurite network” value ([1]; p-CouA at the lowest concentrations) of the same compound?
Answer: inactive

Question: What does the source list for `COc1cc(/C=C/C(=O)O)cc(OC)c1O` [SA, sinapic acid]?
Answer: neuron survival ([1]; 100, 10 and 1 nM): ~80%; neurite network ([1]; SA 10 pM to 50 μM): no protective effect; neuron survival ([1]; SA at the lowest concentrations): inactive

Question: With `CC1=C[C@H]2Cc3[nH]c(=O)ccc3[C@]3(C1)NCCC[C@H]23` [HupB, Huperzine B] as the compound, how does the “memory retention and memory retrieval” value (mice) read?
Answer: improved memory retention and memory retrieval
